Assay results as given in article PMC5681435, “Differential Regulation of G1 CDK Complexes by the Hsp90-Cdc37 Chaperone System” (Cell Reports, 2017).
Entries after “also recorded” stand apart in the source; their conditions may differ.

How the values were obtained:
[1] = test system: CDK6-cyclin D; set-up: method as in Sherr et al., 2016; settings: ref Sherr et al., 2016; read-out: IC50 against CDK6-cyclin D; cited from earlier work
[2] = test system: CDK4-cyclin D; set-up: method as in Sherr et al., 2016; settings: ref Sherr et al., 2016; read-out: IC50 against CDK4-cyclin D; cited from earlier work
[3] = target: T1, CDK4-Cdc37 complex (Homo sapiens, UniProt P11802); type: binding; settings: HTRF competition, 8 nM GSTCDK4, 150 nM C-Avi Cdc37
T1 construct: Full length human CDK4 and CDK6 with an N-terminal; made in house; host or cells: GSTCDK4: Sf9 insect cells; Cdc37: E. coli
T1 sequence (P11802 whole entry, one chain of several): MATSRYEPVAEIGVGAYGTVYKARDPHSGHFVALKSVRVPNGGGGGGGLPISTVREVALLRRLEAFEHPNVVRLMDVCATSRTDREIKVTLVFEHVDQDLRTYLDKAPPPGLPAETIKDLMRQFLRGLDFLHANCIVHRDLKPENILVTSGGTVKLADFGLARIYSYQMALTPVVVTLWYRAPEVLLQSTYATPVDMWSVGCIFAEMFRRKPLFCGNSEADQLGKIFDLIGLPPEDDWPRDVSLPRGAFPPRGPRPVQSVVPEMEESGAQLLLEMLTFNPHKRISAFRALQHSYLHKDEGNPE

[4] = target: T2, CDK2 (Homo sapiens, UniProt P24941); experiment: HTRF direct binding to GSTCDK2; settings: GSTCDK2 25 nM
T2 construct: made in house; host or cells: E. coli BL21STAR(DE3)
Description: (§1) exchange chromatography (HiTrap Q, GE Healthcare). Protein concentrations were determined by NanoDrop2000 UV-Vis Spectrophotometer (Thermo Scientific) or using a Shimadzu UV1800 spectrophotometer. A representative SDS-polyacrylamide gel stained with silver is shown in Figure S4 to illustrate the purity of the GSTCDK4 and GSTCDK6 […]
(§2) Avi-tagged proteins (Cdc37, p16INK4a, p16INK4a mutants, Kcyclin and Vcyclin) were biotinylated to provide an affinity tag for the streptavidin-tagged XL665 dye. A substantial amount of biotinylated protein was purified from the recombinant E. coli cells as a result of endogenous BirA activity. Proteins were further modified by incubating 40 µM of the Avi-tagged protein with 10 µg BirA in biotinylation buffer (50 mM Bicine pH 8.3, 10 mM ATP, 10 mM MgOAc, 50 µM d-biotin) at 30°C for 60 minutes. […] The extent of protein biotinylation was monitored by pull downs using High Capacity NeutrAvidin® Agarose Resin (Thermo […]
(§3) To assemble the various complexes, 15 µg of Cdc37 was mixed with a molar equivalent of CDK6, and incubated for 1hour at 4 °C. […] The reactions were stopped by addition of 2 x LDS buffer and analysed by SDS-PAGE and subsequent western blotting using an anti-phosphorylated S780 antibody […]
(§4) Homogenous time-resolved fluorescence (HTRF) […]

[5] = target: T3, CDK6 (Homo sapiens, UniProt Q00534); experiment: HTRF direct binding to GSTCDK6; settings: GSTCDK6 10 nM, read-out: Dissociation constant for binding to CDK6
T3 construct: Full length human CDK4 and CDK6 with an N-terminal; made in house; host or cells: Sf9 insect cells (baculovirus, MultiBac)
T3 sequence (Q00534 whole entry): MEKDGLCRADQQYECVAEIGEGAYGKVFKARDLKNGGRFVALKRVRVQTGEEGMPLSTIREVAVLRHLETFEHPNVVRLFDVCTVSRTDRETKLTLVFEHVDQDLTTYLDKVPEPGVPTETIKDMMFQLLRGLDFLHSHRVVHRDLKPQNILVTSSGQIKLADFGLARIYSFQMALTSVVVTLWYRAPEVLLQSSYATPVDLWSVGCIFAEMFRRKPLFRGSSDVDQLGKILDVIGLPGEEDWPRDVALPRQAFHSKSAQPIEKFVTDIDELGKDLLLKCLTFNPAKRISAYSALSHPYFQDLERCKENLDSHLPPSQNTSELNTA
Description: as §1, §2, §3, §4

[6] = target: B-Raf^V600E kinase domain; set-up: method as in Polier et al., 2013; settings: isothermal titration calorimetry; ref Polier et al., 2013; read-out: Affinity of Cdc37-B-Raf^V600E kinase domain interaction; cited from earlier work
[7] = target: T4, CDK4 (Homo sapiens, UniProt P11802); experiment: HTRF direct binding to GSTCDK4; settings: GSTCDK4 10 nM, read-out: Dissociation constant for binding to CDK4
T4 construct: Full length human CDK4 and CDK6 with an N-terminal; made in house; host or cells: Sf9 insect cells (baculovirus, MultiBac)
T4 sequence (P11802 whole entry): as the sequence (P11802 whole entry, one chain of several) above
Description: as §1, §2, §3, §4

[8] = target: T5, CDK4-cyclin D1/D3 complexes (Homo sapiens, UniProt P11802); experiment: HTRF association of Avi-tagged Cdc37 with GSTCDK4-cyclin D complexes with or without p21M/p27M; type: binding; settings: ternary complex, Figure 4E
T5 construct: Full length human CDK4 and CDK6 with an N-terminal; made in house; host or cells: Sf9 insect cells (co-expression)
T5 sequence (P11802 whole entry): as the sequence (P11802 whole entry, one chain of several) above
T5 sequence (P30281 whole entry partner): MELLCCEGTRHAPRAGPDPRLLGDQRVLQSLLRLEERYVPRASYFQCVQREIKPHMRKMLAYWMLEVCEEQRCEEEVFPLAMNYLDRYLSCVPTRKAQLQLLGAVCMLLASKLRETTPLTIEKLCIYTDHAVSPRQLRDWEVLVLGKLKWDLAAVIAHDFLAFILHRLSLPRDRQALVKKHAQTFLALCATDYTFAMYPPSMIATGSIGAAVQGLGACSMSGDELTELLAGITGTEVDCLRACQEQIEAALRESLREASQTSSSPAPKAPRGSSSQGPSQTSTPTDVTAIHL
Description: To find out whether the CIP/KIP CKIs can cooperate with cyclin D isoforms to generate a stable ternary CDK4 complex that is resistant to displacement by Cdc37, we next purified GSTCDK4-cyclin D1 and D3 and GSTCDK6-cyclin D1 and D3 complexes assembled in insect cells, incubated them with excess p21M or p27M, and isolated the complexes by size-exclusion chromatography. We then used the HTRF assay to measure the association of Avi-tagged Cdc37 with GSTCDK4 and GSTCDK6, which were presented unpartnered, in a binary complex with cyclin D1 or cyclin D3, or in a ternary complex with cyclin D1 or D3 and p21M, or p27M. As shown previously, Cdc37 binds to monomeric CDK4 (Figures 4C and 4E, blue lines) and effectively displaces cyclin D1 or cyclin D3 (Figures 4C and 4E, red lines). […]
as §1
Avi-tagged proteins (Cdc37, p16INK4a, p16INK4a mutants, Kcyclin and Vcyclin) were biotinylated to provide an affinity tag for the streptavidin-tagged XL665 dye. […] The extent of protein biotinylation was monitored by pull downs using High Capacity NeutrAvidin® Agarose Resin (Thermo […]

Row | Compound | IC50 [1] [nM] | IC50 [2] [nM] | Displacement of Cdc37 from CDK4-Cdc37 complex (in words) [3] | other results
1 | CN(C)C(=O)c1cc2cnc(Nc3ccc(N4CCNCC4)cn3)nc2n1C1CCCC1 [LEE011, ribociclib] | 39 | 10 | – | –
2 | CCN1CCN(Cc2ccc(Nc3ncc(F)c(-c4cc(F)c5nc(C)n(C(C)C)c5c4)n3)nc2)CC1 [LY2835219, abemaciclib] | 5 | 2 | unable to derive reproducible inhibition curves | –
3 | CC(=O)c1c(C)c2cnc(Nc3ccc(N4CCNCC4)cn3)nc2n(C2CCCC2)c1=O [PD0332991, palbociclib] | 15 | 11 | – | –
4 | Cdc37: human Hsp90 adaptor co-chaperone Cdc37, recombinant, Avi- or FLAG-tagged | – | – | – | Binding to CDK2 [4]: not bind to CDK2; also recorded: no interaction could be detected; Kd [5]: 460 ± 230 nM; Kd [6]: ~200 nM; Kd [7]: 92 ± 29 nM
5 | p21M: p21CIP1 fragment residues 1–87 | – | – | can displace | Effect of addition to CDK4-cyclin D3 on Cdc37 binding [8]: prevent Cdc37 from binding
6 | p21S: p21CIP1 fragment residues 9–87 | – | – | can displace | –
